What follows are compounds tested on human neutrophilic leukocyctes (assay: Activity for inhibiting the generation of O2- in human neutrophilic leukocytes (FMLP-stimulated, ferricytochrome C method)). Settings: Leukocyte, O₂⁻ generation stimulated with 3×10⁻⁷ M FMLP at 37°C, cytochalasin B 5 µg/ml, pre-incubated with test compound 20 minutes, 4 minutes reduction, absorbance 550 nm, read-out: IC₅₀.
Assay type: cell-based
Protocol: Activity for inhibiting the generation of O₂⁻ in human neutrophilic leukocyctes
Human neutrophilic leukocyctes were prepared in accordance with the method of M. Markert et al. [Methods in Enzymology, vol. 105; pp. 358-365 (1984)]. That is, a whole blood obtained from a healthy adult and treated by anticoagulation method was subjected to a dextranhypotonic treatment to obtain leukocyte cells. The leukocycte cells were then subjected to a density gradient ultracentrifugation by Ficoll-Paque to obtain a neutrophilic leukocyte fraction.
O₂⁻ generation was examined by the ferricytochrome C method in accordance with the mehtod of B.N. Cronstein et al. [Journal of Experimental Medicine, vol. 158, pp. 1160-1177 (1983)]. That is, […] of neutrophilic leukocytes were stimulated with 3×10⁻⁷ M of N-formyl-L-methionyl-L-leucyl-L-phenylalanine (FMLP) at 37°C in the presence of 1.3 mg/ml of ferricytochrome C and 5 µg/ml of cytochalasin B in a Hepes-buffered Hank's solution (pH 7.4); the amount of ferricytochrome C formed by 4 minutes of reduction was determined by measuring an absorbance at a wavelength of 550 nm using a spectrophotometer; an absorbance in the presence of 25.1 µg/ml of superoxide dismutase (SOD) was also measured; the difference of the two absorbances was taken as the amount of O₂⁻ generated. Each test compound was dissolved in dimethyl sulfoxide (DMSO); the solution was added to neutrophilic leukocytes before the addition of FMLP; then, the neutrophilic leukocytes were pre-incubated at 37°C for 20 minutes. By using the amount of O₂⁻ generated when the test compound solution was added and the amount of O₂⁻ generated when only the solvent (DMSO) was added, a ratio of inhibition (%) was calculated, and the activity for inhibiting O₂⁻ generation was expressed as 50% inhibitory concentration (IC₅₀).

Compound	IC50 [nM]
COc1ccc(-c2nc(-c3cccc(NC(=N)SC)c3)cs2)cc1OC [Test compound 16, 1-{3-[2-(3,4-Dimethoxyphenyl)-4-thiazolyl]phenyl}-2-methylisothiourea hydroiodide]	350
CCOc1ccc(-c2nc(-c3ccc(C(=N)SC)cc3)cs2)cc1OCC [Example 19]	200
COc1ccc(-c2nc(-c3ccc(O)c(C(=O)NO)c3)cs2)cc1OC [Test compound 13, Disodium [2-(3,4-dimethoxyphenyl)-4-thiazolyl]salicylhydroxamate]	600
CCOc1ccc(-c2nc(-c3ccc(C(=N)NO)cc3)cs2)cc1OCC [Example 18]	13
CCOc1ccc(-c2nc(-c3cccc(C(O)CN4CCN(C)CC4)n3)cs2)cc1OCC (stereo not shown) [Example 28]	450
CCOc1ccc(-c2nc(-c3ccc(O)c(-c4nnn[nH]4)c3)cs2)cc1OCC [Test compound 5, 2-(3,4-Diethoxyphenyl)-4-[3-(1,2,3,4-tetrazol-5-yl)-4-hydroxyphenyl]thiazole]	240
CCOc1ccc(-c2nc(-c3cc(N4CCN(C)CC4)ccn3)cs2)cc1OCC [Example 27]	750

Continued, values first:

IC50 [nM]	Compound
230	CCOc1ccc(-c2nc(-c3cccc(C(=N)NO)n3)cs2)cc1OCC [Example 29]
66	CCOc1ccc(-c2nc(-c3ccc(C(N)=S)cc3)cs2)cc1OCC [Example 17]
55	CCOc1ccc(-c2nc(-c3cccc(C(N)=S)n3)cs2)cc1OCC [Example 24]
72	CCOc1ccc(-c2nc(-c3cnccn3)cs2)cc1OCC [Example 23]
330	CCOc1ccc(-c2nc(-c3cccc(C(=N)SC)n3)cs2)cc1OCC [Example 25]
30	CCOc1ccc(-c2nc(-c3ccc(NC(N)=S)cc3)cs2)cc1OCC [Example 20]

Source: patent EP0600092A1, “THIAZOLE DERIVATIVE” (OTSUKA PHARMACEUTICAL CO., LTD., priority 1992, dated 1993)
